According to patent publication US20150105252A1, “SUBSTITUTED PYRAZOLES AS HERBICIDES” (E I DU PONT DE NEMOURS AND COMPANY, priority 2013, published 2015):

Legend:
[1] = tested on: guineagrass; experiment: Test E preemergence; assay type: in vivo, Panicum maximum; details: 21 days, scale 0 to 100
Excerpt: (§1) Seeds of plant species selected from bermudagrass (Cynodon dactylon), Surinam grass (Brachiaria decumbens), crabgrass, large (large crabgrass, Digitaria sanguinalis), crabgrass, naked (naked crabgrass, Digitaria nuda), foxtail, green (green foxtail, Setaria viridis), johnsongrass (Sorghum halepense), kochia (Kochia scoparia), morningglory (pitted morningglory, Ipomoea lacunosa), nutsedge, purple (purple nutsedge, Cyperus rotundus), ragweed (common ragweed, Ambrosia elation), mustard, black (black mustard, Brassica nigra), guineagrass (Panicum maximum), dallisgrass (Paspalum dilatatum), barnyardgrass (Echinochloa crus-galli), sandbur (southern sandbur, Cenchrus echinatus), sowthistle (common sowthistle, Sonchus oleraceous), ryegrass, Italian (Italian ryegrass, Lolium multiflorum), signalgrass (broadleaf signalgrass, Brachiaria platyphylla), dayflower, VA (Virginia (VA) dayflower, Commelina virginica), bluegrass (annual bluegrass, Poa annua), quackgrass (Elytrigia repens), mallow (common mallow, Malva sylvestris), buckwheat, wild (wild buckwheat, Polygonum convolvulus), leafy spurge (Euphorbia esula), common chickweed (Stellaria media), wild poinsettia (Euphorbia heterophylla), pigweed, palmer (palmer pigweed, Amaranthus palmeri), and pigweed (redroot pigweed, Amaranthus retroflexus) were planted into a blend of loam soil and sand and treated preemergence with test chemicals formulated in a non-phytotoxic solvent mixture which included a surfactant.
(§2) Treated plants and controls were maintained in a greenhouse for 21 days, after which time all species were compared to controls and visually evaluated. Plant response ratings, summarized in Table E, are based on a scale of 0 to 100 where 0 is no effect and 100 is complete control. A dash (-) response means no test result.

[2] = tested on: ryegrass, Italian; experiment: Test E preemergence; assay type: in vivo, Lolium multiflorum; details: 21 days, scale 0 to 100
Excerpt: as §1, §2

[3] = tested on: signalgrass; experiment: Test E preemergence; assay type: in vivo, Brachiaria platyphylla; details: 21 days, scale 0 to 100
Excerpt: as §1, §2

[4] = tested on: bluegrass; experiment: Test E preemergence; assay type: in vivo, Poa annua; details: 21 days, scale 0 to 100
Excerpt: as §1, §2

[5] = tested on: mallow; experiment: Test E preemergence; assay type: in vivo, Malva sylvestris; details: 21 days, scale 0 to 100
Excerpt: as §1, §2

[6] = tested on: buckwheat, wild; experiment: Test E preemergence; assay type: in vivo, Polygonum convolvulus; details: 21 days, scale 0 to 100
Excerpt: as §1, §2

[7] = tested on: pigweed; experiment: Test E preemergence; assay type: in vivo, Amaranthus retroflexus; details: 21 days, scale 0 to 100
Excerpt: as §1, §2

[8] = tested on: fall panicum; experiment: Test F postemergence; assay type: in vivo, Panicum dichotomiflorum; details: scale 0 to 100
Excerpt: (§3) Seeds of plant species selected from corn (Zea mays), soybean (Glycine max), velvetleaf (Abutilon theophrasti), lambsquarters (Chenopodium album), wild poinsettia (Euphorbia heterophylla), pigweed, palmer (palmer pigweed, Amaranthus palmeri), common waterhemp (Amaranthus rudis), surinam grass (Brachiaria decumbens), large crabgrass (Digitaria sanguinalis), crabgrass, Brazil (Brazilian crabgrass, Digitaria horizontalis), fall panicum (Panicum dichotomiflorum), giant foxtail (Setaria faberii), green foxtail (Setaria viridis), goosegrass (Eleusine indica), johnsongrass (Sorghum halepense), common ragweed (Ambrosia elation), barnyardgrass (Echinochloa crus-galli), southern sandbur (Cenchrus echinatus), arrowleaf sida (Sida rhombifolia), Italian ryegrass (Lolium multiflorum), dayflower, VA (Virginia (VA) dayflower, Commelina virginica), field bindweed (Convolvulus arvensis), cocklebur (common cocklebur, Xanthium strumarium), morningglory (Ipomoea coccinea), nightshade (eastern black nightshade, Solanum ptycanthum), kochia (Kochia scoparia), yellow nutsedge (Cyperus esculentus), and hairy beggarticks (Bidens pilosa), were planted into a silt loam soil and treated preemergence with test chemicals formulated in a non-phytotoxic solvent mixture which included a surfactant.
(§4) At the same time, plants from these crop and weed species and also horseweed (Canada horseweed, Conyza canadensis), smartweed (ladysthumb smartweed, Polygonum persicaria), waterhemp_RES1, (ALS & Triazine resistant common waterhemp, Amaranthus rudis), and waterhemp_RES2, (ALS & HPPD resistant common waterhemp, Amaranthus rudis) were treated with postemergence applications of test chemicals formulated in the same manner. Plants ranged in height from 2 to 18 cm for postemergence treatments (1- to 4-leaf stage). Treated plants and controls were maintained in a greenhouse for 14 to 21 days, after which time all species were compared to controls and visually evaluated. Plant response ratings, summarized in Table F, are based on a scale of 0 to 100 where 0 is no effect and 100 is complete control. A dash (-) response means no test result.

[9] = tested on: barnyardgrass; experiment: Test F postemergence; assay type: in vivo, Echinochloa crus-galli; details: scale 0 to 100
Excerpt: as §3, §4

[10] = tested on: smartweed; experiment: Test F postemergence; assay type: in vivo, Polygonum persicaria; details: 500 g ai/ha, scale 0 to 100
Excerpt: as §3, §4

[11] = tested on: sowthistle; experiment: Test E preemergence; assay type: in vivo, Sonchus oleraceous; details: 21 days, scale 0 to 100
Excerpt: as §1, §2

CCc1cc(C(=O)NC(C)C)nn1Cc1ccnc(C(F)(F)F)c1 [Compound 103]
Plant response rating, Guineagrass ([1]; 16 g ai/ha): 100 | Plant response rating, Guineagrass ([1]; 31 g ai/ha): 100 | Plant response rating, Guineagrass ([1]; 62 g ai/ha): 100 | Plant response rating, Guineagrass ([1]; 125 g ai/ha): 100 | Plant response rating, Guineagrass ([1]; 250 g ai/ha): 100 | Plant response rating, Ryegrass, Italian ([2]; 16 g ai/ha): 50 | Plant response rating, Ryegrass, Italian ([2]; 31 g ai/ha): 98 | Plant response rating, Ryegrass, Italian ([2]; 62 g ai/ha): 100 | Plant response rating, Ryegrass, Italian ([2]; 125 g ai/ha): 100 | Plant response rating, Ryegrass, Italian ([2]; 250 g ai/ha): 100 | Plant response rating, Signalgrass ([3]; 16 g ai/ha): 65 | Plant response rating, Signalgrass ([3]; 31 g ai/ha): 80 | Plant response rating, Signalgrass ([3]; 62 g ai/ha): 100 | Plant response rating, Signalgrass ([3]; 125 g ai/ha): 100 | Plant response rating, Signalgrass ([3]; 250 g ai/ha): 100 | Plant response rating, Bluegrass ([4]; 16 g ai/ha): 40 | Plant response rating, Bluegrass ([4]; 31 g ai/ha): 90 | Plant response rating, Bluegrass ([4]; 62 g ai/ha): 95 | Plant response rating, Bluegrass ([4]; 125 g ai/ha): 98 | Plant response rating, Bluegrass ([4]; 250 g ai/ha): 100 | Plant response rating, Mallow ([5]; 16 g ai/ha): 95 | Plant response rating, Mallow ([5]; 31 g ai/ha): 98 | Plant response rating, Mallow ([5]; 62 g ai/ha): 98 | Plant response rating, Mallow ([5]; 125 g ai/ha): 100 | Plant response rating, Mallow ([5]; 250 g ai/ha): 100 | Plant response rating, Buckwheat, Wild ([6]; 16 g ai/ha): 95 | Plant response rating, Buckwheat, Wild ([6]; 31 g ai/ha): 100 | Plant response rating, Buckwheat, Wild ([6]; 62 g ai/ha): 100 | Plant response rating, Buckwheat, Wild ([6]; 125 g ai/ha): 100 | Plant response rating, Buckwheat, Wild ([6]; 250 g ai/ha): 100 | Plant response rating, Pigweed ([7]; 16 g ai/ha): 100 | Plant response rating, Pigweed ([7]; 31 g ai/ha): 100 | Plant response rating, Pigweed ([7]; 62 g ai/ha): 100 | Plant response rating, Pigweed ([7]; 125 g ai/ha): 100 | Plant response rating, Pigweed ([7]; 250 g ai/ha): 100

CCOc1cc(C(=O)NC(C)C)nn1Cc1ccnc(C(F)(F)F)c1 [Compound 188]
Plant response rating, Fall Panicum ([8]; Postemergence, 31 g ai/ha): 20 | Plant response rating, Fall Panicum ([8]; Postemergence, 125 g ai/ha): 55 | Plant response rating, Fall Panicum ([8]; Postemergence, 250 g ai/ha): 75 | Plant response rating, Fall Panicum ([8]; postemergence, 62 g ai/ha): 20 | Plant response rating, Fall Panicum ([8]; postemergence, 500 g ai/ha): 90 | Plant response rating, Barnyardgrass ([9]; Postemergence, 31 g ai/ha): 0 | Plant response rating, Barnyardgrass ([9]; Postemergence, 125 g ai/ha): 50 | Plant response rating, Barnyardgrass ([9]; Postemergence, 250 g ai/ha): 60 | Plant response rating, Barnyardgrass ([9]; postemergence, 62 g ai/ha): 20 | Plant response rating, Barnyardgrass ([9]; postemergence, 500 g ai/ha): 95 | Plant response rating, Smartweed [10]: 95

CCOc1cc(C(=O)NC2CC2)nn1Cc1ccnc(C(F)(F)F)c1 [Compound 189]
Plant response rating, Guineagrass ([1]; 4 g ai/ha): 30 | Plant response rating, Guineagrass ([1]; 8 g ai/ha): 75 | Plant response rating, Guineagrass ([1]; 16 g ai/ha): 100 | Plant response rating, Guineagrass ([1]; 31 g ai/ha): 100 | Plant response rating, Guineagrass ([1]; 62 g ai/ha): 100 | Plant response rating, Sowthistle ([11]; 4 g ai/ha): 98 | Plant response rating, Sowthistle ([11]; 8 g ai/ha): 98 | Plant response rating, Sowthistle ([11]; 16 g ai/ha): 100 | Plant response rating, Sowthistle ([11]; 31 g ai/ha): 100 | Plant response rating, Sowthistle ([11]; 62 g ai/ha): 100 | Plant response rating, Ryegrass, Italian ([2]; 4 g ai/ha): 0 | Plant response rating, Ryegrass, Italian ([2]; 8 g ai/ha): 0 | Plant response rating, Ryegrass, Italian ([2]; 16 g ai/ha): 20 | Plant response rating, Ryegrass, Italian ([2]; 31 g ai/ha): 50 | Plant response rating, Ryegrass, Italian ([2]; 62 g ai/ha): 100 | Plant response rating, Signalgrass ([3]; 4 g ai/ha): 0 | Plant response rating, Signalgrass ([3]; 8 g ai/ha): 30 | Plant response rating, Signalgrass ([3]; 16 g ai/ha): 60 | Plant response rating, Signalgrass ([3]; 31 g ai/ha): 95 | Plant response rating, Signalgrass ([3]; 62 g ai/ha): 100 | Plant response rating, Bluegrass ([4]; 4 g ai/ha): 0 | Plant response rating, Bluegrass ([4]; 8 g ai/ha): 0 | Plant response rating, Bluegrass ([4]; 16 g ai/ha): 50 | Plant response rating, Bluegrass ([4]; 31 g ai/ha): 50 | Plant response rating, Bluegrass ([4]; 62 g ai/ha): 80 | Plant response rating, Mallow ([5]; 4 g ai/ha): 90 | Plant response rating, Mallow ([5]; 8 g ai/ha): 65 | Plant response rating, Mallow ([5]; 16 g ai/ha): 100 | Plant response rating, Mallow ([5]; 31 g ai/ha): 98 | Plant response rating, Mallow ([5]; 62 g ai/ha): 100 | Plant response rating, Buckwheat, Wild ([6]; 4 g ai/ha): 70 | Plant response rating, Buckwheat, Wild ([6]; 8 g ai/ha): 100 | Plant response rating, Buckwheat, Wild ([6]; 16 g ai/ha): 100 | Plant response rating, Buckwheat, Wild ([6]; 31 g ai/ha): 100 | Plant response rating, Buckwheat, Wild ([6]; 62 g ai/ha): 100 | Plant response rating, Pigweed ([7]; 4 g ai/ha): 60 | Plant response rating, Pigweed ([7]; 8 g ai/ha): 60 | Plant response rating, Pigweed ([7]; 16 g ai/ha): 100 | Plant response rating, Pigweed ([7]; 31 g ai/ha): 100 | Plant response rating, Pigweed ([7]; 62 g ai/ha): 100
